Test results taken from publication PMC9814779, “A triple farnesoid X receptor and peroxisome proliferator-activated receptor α/δ activator reverses hepatic fibrosis in diet-induced NASH in mice” (Communications Chemistry, 2020).

System: GAN DIO-NASH mice
Assay: DIO NASH model in mice (GAN diet)
Conditions: for animals with fibrosis worsening / animals with improvement in lobular inflammation / animals with reversed fibrosis: animals/group; for inflammatory cells and inflammatory foci in the liver: compared to vehicle; for liver Galectin-3 (Gal3) and liver CD45: markers of inflammation
Protocol: The DIO NASH model was performed by the contract research organization Gubra (Hørsholm, Denmark) on a fee-for-service basis. All animal experiments were conducted in accordance with Gubra’s bioethical guidelines, which are fully compliant to internationally accepted principles for the care and use of laboratory animals. The animals were checked minimum once daily for signs of abnormal behavior, abnormal locomotor activity, ataxia, or clinical signs of disease (lack of grooming, raised fur, signs of pain upon handling, loss of excessive body weight).
Male C57BL/6JRj mice (purchased from Janvier Labs, France at 5 weeks of age) were used for the study. […] Mice received the Gubra AMLN NASH (GAN; D09100310, Research Diet, US; 40% fat (primarily palm oil), 40% carbohydrate (20% fructose), and 2% cholesterol) diet for 46 weeks before start of the treatment. Prior to treatment, all animals underwent liver biopsy for histological conformation of liver disease (steatosis score ≥2 and fibrosis stage ≥1) using the non-alcoholic fatty liver disease activity scoring (NAS) and fibrosis staging system. Randomization and stratification to treatment was performed according to quantitative collagen staining (PSR). GAN DIO-NASH mice (n = 16 per group) received treatment (PO) with vehicle, OCA (30 mg/kg), or 41 (10 mg/kg, BID) for 12 weeks. Water containing 1% HPMC/Tween 80 (99:1) served as vehicle. Mice were then sacrificed by cardiac puncture under isoflurane anesthesia for histopathological and biochemical analysis.
For pre-biopsies, mice were anesthetized by inhalation anesthesia using isoflurane (2–3%). A small abdominal incision was made in the midline and the left lateral lobe of the liver was exposed. A cone-shaped wedge of liver tissue (approximately 50 mg) was excised from the distal portion of the lobe and fixated in 10% neutral buffered formalin (10%) for histology. The cut surface of the liver was instantly electrocoagulated using bipolar coagulation (ERBE VIO 100 electrosurgical unit). The liver was returned to the abdominal cavity, the abdominal wall was sutured, and the skin was closed with staplers. […] TG, TC, ALT, and AST levels were determined from blood samples collected at week 4 of treatment in heparinized tubes. Plasma was separated and stored at −80 °C until analysis. […] After termination by heart puncture, livers were collected and weighed. Specific liver samples and biopsies were dissected and processed. The liver was divided into left lateral lobe, medial lobe, right lateral lobe, and caudal lobe. The left lateral lobe was used for the pre-biopsy (not applicable at termination). The liver post biopsy (~200 mg, <0.7 × 0.5 cm) was cut 4 mm from the pre-biopsy site and with an edge. The tissue was collected in paraformaldehyde. The medial lobe was sectioned and snap-frozen in liquid nitrogen for later analysis. One piece (25 ± 5 mg) was dissected and used for TG/TC analysis. […] Liver samples were fixed in formalin, paraffin embedded, and sections were stained. For H&E staining, the slides were incubated in Mayer’s Hematoxylin (Dako), washed in tap water, stained in Eosin Y solution (Sigma-Aldrich), […], and cover-slipped. For PSR staining, the slides were incubated in Weigert’s iron hematoxylin (Sigma-Aldrich), washed in tap water, stained in PSR (Sigma-Aldrich), and washed twice in acidified water. Excess water was removed by shaking the slides, and the slides were then dehydrated in three changes of 100% ethanol, cleared in xylene, and cover-slipped. […] Briefly, after antigen retrieval and blocking of endogenous peroxidase activity, slides were incubated with primary antibody. The primary antibody was detected using a polymeric horseradish peroxidase–linker antibody conjugate. Next, the primary antibody was visualized with 3,3′diaminobenzidine as chromogen. Finally, sections were counterstained in hematoxylin and cover-slipped. Samples were scored for NAS following the criteria outlined in[37].

[1] = 41 10 mg/kg b.i.d., OCA 30 mg/kg
[2] = 12 weeks of treatment, 41 10 mg/kg b.i.d., OCA 30 mg/kg
[3] = 12 weeks, 41 10 mg/kg b.i.d., OCA 30 mg/kg

| Compound | plasma biochemical parameters after 4 weeks of treatment [1] | plasma ALT, AST and triglycerides (TG) at termination [2] | plasma total cholesterol (TC) at termination (12 weeks of treatment, OCA 30 mg/kg) | liver weight, liver TG and liver TC content [3] | steatosis, hepatic fat content [3] | animals not completing the study (OCA 30 mg/kg, one animal) | animals with fibrosis worsening [3] | animals with improvement in lobular inflammation [3] | animals with reversed fibrosis [3] | inflammatory cells and inflammatory foci in the liver (12 weeks) | liver Galectin-3 (Gal3) and liver CD45 (12 weeks) | food intake and body weight (12 weeks, 41 10 mg/kg b.i.d., vs. OCA or vehicle) | liver picrosirius red (PSR), pre vs. post treatment (after the treatment period, 41 10 mg/kg b.i.d.) | fibrosis markers PSR, Col1a1 and α-SMA (compared to vehicle-treated animals, 12 weeks) |
| --- | --- | --- | --- | --- | --- | --- | --- | --- | --- | --- | --- | --- | --- | --- |
| CC[C@H]1[C@@H](O)[C@@H]2[C@H](CC[C@]3(C)[C@@H]([C@H](C)CCC(=O)O)CC[C@@H]23)[C@@]2(C)CC[C@@H](O)C[C@@H]12 [OCA, 6α-ethylchenodeoxycholic acid, reference compound] | reduced total cholesterol (TC) plasma levels | not different between groups | reduced TC levels | lowered liver weight, liver TG, and liver TC | strongly reduced hepatic fat content and steatosis score | found dead during the second week of the treatment phase | 4/15 | 8/15 | 2/15 | decreased the number of inflammatory cells and inflammatory foci | reduced by both treatments | – | – | – |
| CC(C)(C)c1ccc(C(=O)Nc2cccc(CCC(=O)O)c2)c(NC(=O)c2ccc(-c3ccco3)cc2)c1 [compound 41, 3-(3-[4-{tert-Butyl}-2-{4-(2-furyl)}benzamido]phenyl)propanoic acid] | not significantly different between the groups | not different between groups | – | did not differ from vehicle-treated mice | no pronounced effect on steatosis | – | 1/16 | 5/16 | 6/16 | decreased the number of inflammatory cells and inflammatory foci | reduced by both treatments | no difference in food intake and body weight | significant reduction of liver picrosirius red (PSR) | decreased |
